This passage reports IC50 and EC50 results from US8785470B2, “Heterocyclic compounds and uses thereof” (Infinity Pharmaceuticals, Inc., priority 2011, dated 2014).

Assay [1] deals with T1, PI3Kα (Homo sapiens, UniProt P42336).
T1 construct: purchased Millipore Corporation 14-602-K
Put plainly: PI3-Kinase HTRF assay, PI3Kα. The note with it: 10 μM ATP, PIP2 at 10 μM, read-out: IC50 P13Kα. Type of assay: biochemical. A digest of the protocol: (§1)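 Competitive time-resolved FRET readout of PIP3 formed from 10 μM PIP2 with 10 μM ATP, 1 h at room temperature, by each recombinant human isoform (α, β, γ, δ; 0.25-0.3 μg/ml). Compound (2% DMSO final) was preincubated 15 min with enzyme and substrate; IC50 fitted over 20 μM–0.1 nM, 12 points.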

In assay [2] the test system is phospho-AKT in SKOV-3 cells (PI3Kα). Kind of assay: PI3Kα selective assay, phospho-AKT in SKOV-3 cells. Type of assay: cell-based. Particulars: Homo sapiens, SK-OV-3, read-out: IC50 for phospho-AKT, SKOV-3 cell model. The source says:
A compound's ability in selectively inhibiting PI3Kα can be assessed using SKOV-3 cells, i.e., human ovarian carcinoma cell line. Briefly, SKOV-3 cells, in which mutant PI3Kα is constitutively active, can be treated with test compounds. Test compounds' ability to inhibit AKT phosphorylation in SKOV-3 cells, therefore, is indicative of selective inhibition of PI3Kα. Thus, by monitoring the reduction of phospho-AKT in SKOV-3 cells (using for example, phospho-AKT antibodies), a compound's potential efficacy in selectively inhibiting PI3Kα can be assessed.
Certain compounds provided herein (e.g., Compounds 5, 49, 138, 326, 328, 354, 359, 389, and 391) were tested in SKOV-3 cell model using procedures as described above.

Assay [3] deals with Balb/c splenic B cells. Kind of assay: B cell activation and proliferation assay. Particulars: Mus musculus, read-out: B cell proliferation EC50. The assay is classed as cell-based. The procedure, abridged:
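Read-out is metabolic activity by Alamar Blue reduction (5 h, 560Ex/590Em) after 72 h at 37° C, reported as IC50 or EC50. Compound (0.2% DMSO) was added 30 min before a cocktail holding 10 μg/ml LPS or 5 μg/ml F(ab′)2 anti-IgM with 2 ng/ml mouse IL4. Cells were purified Balb/c splenic B cells, 50.000 per well.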

In assay [4] the test system is phospho-AKT in RAW 264.7 cells (PI3Kγ). Kind of assay: PI3Kγ selective assay, phospho-AKT in RAW 264.7 cells. The assay is classed as cell-based. Particulars: Mus musculus, RAW264.7; stimulated with C5a; ranges less than 100 nM and between 100 nM and 1 μM (given as 100-1000); read-out: IC50 for phospho-AKT, RAW 264.7 cell model. A digest of the protocol: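 Serum-starved RAW 264.7 macrophages are stimulated with the GPCR agonist C5a and treated with compound before, with or after stimulation. Inhibition is read as reduced C5a-induced phospho-AKT, detected for example with phospho-AKT antibodies.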

Assay [5] relates to phospho-AKT in RAJI cells (PI3Kδ). Kind of assay: PI3Kδ selective assay, phospho-AKT in RAJI cells. The assay is classed as cell-based. Particulars: RAJI cells stimulated with anti-human IgM; read-out: IC50 for phospho-AKT, RAJI cell model. A digest of the protocol: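 Serum-starved RAJI B-lymphoma cells stimulated with anti-human IgM to trigger B-cell receptor signaling; compound effect read as reduction of phospho-AKT, for example detected with phospho-AKT antibodies.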

Assay [6] concerns phospho-AKT in 786-O cells (PI3Kβ). Kind of assay: PI3Kβ selective assay, phospho-AKT in 786-O cells. Type of assay: cell-based. Particulars: Homo sapiens, 786-0, read-out: IC50 for phospho-AKT, 786-O cell model. The source says:
A compound's ability in selectively inhibiting PI3Kβ can be assessed using 786-O cells, i.e., human kidney carcinoma cell line. Briefly, 786-O cells, in which PI3Kβ is constitutively active, can be treated with test compounds. Test compounds' ability to inhibit AKT phosphorylation in 786-O cells, therefore, is indicative of selective inhibition of PI3β. Thus, by monitoring the reduction of phospho-AKT in 786-O cells (using for example, phospho-AKT antibodies), a compound's potential efficacy in selectively inhibiting PI3Kβ can be assessed.
Certain compounds provided herein (e.g., Compounds 5, 49, 138, 326, 328, 354, 359, 389, and 391) were tested in 786-O cell model using procedures as described above.

Assay [7] concerns the target T2, PI3Kβ (Homo sapiens, UniProt P42338).
T2 construct: purchased Millipore Corporation 14-603-K
Put plainly: PI3-Kinase HTRF assay, PI3Kβ. The assay is classed as biochemical. Particulars: bins Greater than 10 μM and Greater than 1 μM to 10 μM; 10 μM ATP, PIP2 at 10 μM. The procedure, abridged:
as §1

Assay [8] concerns the target T3, PI3Kδ (Homo sapiens, UniProt O00329).
T3 construct: purchased Millipore Corporation 14-604-K
Put plainly: PI3-Kinase HTRF assay, PI3Kδ. Particulars: 10 μM ATP, PIP2 at 10 μM. Type of assay: biochemical. The source says: (§2) A PI3-Kinase HTRF® assay kit (cat No. 33-016) purchased from Millipore Corporation was used to screen compounds provided herein. This assay used specific, high affinity binding of the GRPI pleckstrin homology (PH) domain to PIP3, the product of a Class 1A or 1B PI3 Kinase acting on its physiological substrate PIP2. During the detection phase of the assay, a complex was generated between the GST-tagged PH domain and biotinylated short chain PIP3. The biotinylated PIP3 and the GST-tagged PH domain recruited fluorophores (Streptavidin-Allophycocyanin and Europium-labeled anti-GST respectively) to form the fluorescence resonance energy transfer (FRET) architecture, generating a stable time-resolved FRET signal. The FRET complex was disrupted in a competitive manner by non-biotinylated PIP3, a product formed in the PI3 Kinase assay.
(§3) PI3 Kinase α, β, γ and δ activity was assayed using the PI3 Kinase HTRF® assay kit (catalogue No. 33-016) purchased from Millipore Corporation. Purified recombinant PI3Kα (catalogue No. 14-602-K), PI3Kβ (catalogue No. 14-603-K), PI3Kγ (catalogue No. 14-558-K) and PI3Kδ (catalogue No. 14-604-K) were obtained from Millipore Corporation. Purified recombinant PI3K enzyme was used to catalyze the phosphorylation of phosphatidylinositol 4,5-bisphosphate (PIP2 at 10 μM) to phosphatidylinositol 3,4,5-trisphosphate (PIP3) in the presence of 10 μM ATP. The assay was carried out in 384-well format and detected using a Perkin Elmer EnVision Xcite Multilabel Reader. Emission ratios were converted into percent inhibitions and imported into GraphPad Prism software. The concentration necessary to achieve inhibition of enzyme activity by 50% (IC50) was calculated using concentrations ranging from 20 μM to 0.1 nM (12-point curve). IC50 values were determined using a nonlinear regression model available in GraphPad Prism 5. […]

In assay [9] the target is T4, PI3Kγ (Homo sapiens, UniProt P48736).
T4 construct: purchased Millipore Corporation 14-558-K
T4 sequence (P48736 whole entry): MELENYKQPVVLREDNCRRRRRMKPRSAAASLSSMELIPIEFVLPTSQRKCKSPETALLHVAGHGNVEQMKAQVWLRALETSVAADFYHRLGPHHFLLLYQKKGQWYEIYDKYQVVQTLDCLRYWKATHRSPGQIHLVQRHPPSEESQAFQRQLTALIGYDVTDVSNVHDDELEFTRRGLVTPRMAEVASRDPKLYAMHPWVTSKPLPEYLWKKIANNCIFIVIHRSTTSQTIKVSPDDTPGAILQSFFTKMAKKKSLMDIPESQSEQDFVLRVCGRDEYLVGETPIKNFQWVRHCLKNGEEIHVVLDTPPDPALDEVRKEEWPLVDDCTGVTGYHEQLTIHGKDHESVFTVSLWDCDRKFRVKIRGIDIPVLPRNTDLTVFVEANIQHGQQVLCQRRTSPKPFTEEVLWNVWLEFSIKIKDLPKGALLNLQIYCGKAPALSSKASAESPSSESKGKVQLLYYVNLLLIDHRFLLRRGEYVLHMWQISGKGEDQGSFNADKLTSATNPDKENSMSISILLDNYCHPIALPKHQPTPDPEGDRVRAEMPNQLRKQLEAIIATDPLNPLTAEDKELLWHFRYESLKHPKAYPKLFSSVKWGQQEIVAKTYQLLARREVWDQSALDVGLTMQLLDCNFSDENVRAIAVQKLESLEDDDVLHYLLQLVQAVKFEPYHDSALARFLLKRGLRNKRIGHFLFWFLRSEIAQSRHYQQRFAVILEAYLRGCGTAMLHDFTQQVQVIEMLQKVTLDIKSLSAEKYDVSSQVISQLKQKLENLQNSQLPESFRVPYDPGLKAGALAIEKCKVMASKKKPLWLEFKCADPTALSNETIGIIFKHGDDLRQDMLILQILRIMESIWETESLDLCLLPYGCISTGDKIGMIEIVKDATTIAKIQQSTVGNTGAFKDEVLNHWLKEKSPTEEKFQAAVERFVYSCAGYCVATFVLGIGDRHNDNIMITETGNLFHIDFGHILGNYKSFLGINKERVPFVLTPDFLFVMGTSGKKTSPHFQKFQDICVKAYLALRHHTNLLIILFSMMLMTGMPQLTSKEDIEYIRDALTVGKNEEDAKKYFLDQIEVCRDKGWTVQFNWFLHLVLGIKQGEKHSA
Kind of assay: PI3-Kinase HTRF assay, PI3Kγ. Type of assay: biochemical. Particulars: 10 μM ATP, PIP2 at 10 μM.
Source text: as §2, §3

[10] abbreviates: bins Greater than 10 μM and Greater than 1 μM to 10 μM.
Where [11] appears, read: ranges between 1 μM and 10 μM and greater than 10 μM.
The mark [12] stands for this setting: column bins 1 μM to 100 nM (given as 100-1000) and Less than 100 nM.
Setting [13] is: range between 100 nM and 1 μM (given as 100-1000).

Like-named read-outs stand apart in the source and are kept apart here.

T1 sequence (P42336 whole entry): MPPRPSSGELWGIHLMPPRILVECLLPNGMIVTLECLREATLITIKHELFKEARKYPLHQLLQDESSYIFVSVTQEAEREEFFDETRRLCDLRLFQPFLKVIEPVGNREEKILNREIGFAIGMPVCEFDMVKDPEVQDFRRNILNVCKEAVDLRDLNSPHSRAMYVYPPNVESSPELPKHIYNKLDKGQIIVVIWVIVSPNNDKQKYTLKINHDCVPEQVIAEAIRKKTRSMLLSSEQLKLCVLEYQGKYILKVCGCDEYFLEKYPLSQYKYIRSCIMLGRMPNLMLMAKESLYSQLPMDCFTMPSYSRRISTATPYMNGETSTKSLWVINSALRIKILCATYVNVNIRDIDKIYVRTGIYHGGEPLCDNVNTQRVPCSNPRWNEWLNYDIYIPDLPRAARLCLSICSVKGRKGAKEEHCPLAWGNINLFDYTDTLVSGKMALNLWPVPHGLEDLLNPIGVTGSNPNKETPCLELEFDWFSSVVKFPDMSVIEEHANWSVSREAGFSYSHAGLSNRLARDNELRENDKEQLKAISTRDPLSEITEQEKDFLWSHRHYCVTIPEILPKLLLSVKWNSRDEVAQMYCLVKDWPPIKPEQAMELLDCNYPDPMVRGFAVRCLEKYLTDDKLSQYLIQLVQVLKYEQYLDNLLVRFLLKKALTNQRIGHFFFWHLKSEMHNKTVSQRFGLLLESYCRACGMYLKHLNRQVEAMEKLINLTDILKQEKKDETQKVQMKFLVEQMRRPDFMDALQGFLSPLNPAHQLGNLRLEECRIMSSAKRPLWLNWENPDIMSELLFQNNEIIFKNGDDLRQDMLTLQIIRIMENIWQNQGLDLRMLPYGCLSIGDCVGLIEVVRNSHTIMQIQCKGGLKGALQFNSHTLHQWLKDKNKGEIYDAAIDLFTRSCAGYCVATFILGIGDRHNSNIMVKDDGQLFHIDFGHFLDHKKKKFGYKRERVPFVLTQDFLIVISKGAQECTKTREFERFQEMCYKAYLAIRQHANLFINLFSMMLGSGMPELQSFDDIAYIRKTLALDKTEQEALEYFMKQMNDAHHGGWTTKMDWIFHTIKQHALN
T1 sequence (P27986 whole entry partner): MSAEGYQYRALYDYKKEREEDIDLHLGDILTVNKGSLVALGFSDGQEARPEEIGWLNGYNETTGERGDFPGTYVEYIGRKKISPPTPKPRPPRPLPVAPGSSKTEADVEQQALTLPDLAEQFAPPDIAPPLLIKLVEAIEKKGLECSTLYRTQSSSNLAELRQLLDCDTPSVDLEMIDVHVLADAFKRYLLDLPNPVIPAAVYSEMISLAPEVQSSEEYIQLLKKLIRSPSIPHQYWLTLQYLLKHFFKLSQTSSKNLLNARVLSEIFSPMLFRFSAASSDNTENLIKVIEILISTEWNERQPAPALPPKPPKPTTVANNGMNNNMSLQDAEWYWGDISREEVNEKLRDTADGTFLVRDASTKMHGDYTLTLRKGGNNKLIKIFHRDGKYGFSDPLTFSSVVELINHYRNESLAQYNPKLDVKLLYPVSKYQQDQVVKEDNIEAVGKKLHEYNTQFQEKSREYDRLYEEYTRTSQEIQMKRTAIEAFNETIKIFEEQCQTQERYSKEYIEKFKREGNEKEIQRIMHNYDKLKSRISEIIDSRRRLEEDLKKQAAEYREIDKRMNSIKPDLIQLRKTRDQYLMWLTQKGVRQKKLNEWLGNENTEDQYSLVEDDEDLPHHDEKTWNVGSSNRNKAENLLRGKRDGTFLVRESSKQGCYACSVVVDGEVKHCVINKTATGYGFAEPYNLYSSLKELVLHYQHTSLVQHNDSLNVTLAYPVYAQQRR
T2 sequence (P42338 whole entry): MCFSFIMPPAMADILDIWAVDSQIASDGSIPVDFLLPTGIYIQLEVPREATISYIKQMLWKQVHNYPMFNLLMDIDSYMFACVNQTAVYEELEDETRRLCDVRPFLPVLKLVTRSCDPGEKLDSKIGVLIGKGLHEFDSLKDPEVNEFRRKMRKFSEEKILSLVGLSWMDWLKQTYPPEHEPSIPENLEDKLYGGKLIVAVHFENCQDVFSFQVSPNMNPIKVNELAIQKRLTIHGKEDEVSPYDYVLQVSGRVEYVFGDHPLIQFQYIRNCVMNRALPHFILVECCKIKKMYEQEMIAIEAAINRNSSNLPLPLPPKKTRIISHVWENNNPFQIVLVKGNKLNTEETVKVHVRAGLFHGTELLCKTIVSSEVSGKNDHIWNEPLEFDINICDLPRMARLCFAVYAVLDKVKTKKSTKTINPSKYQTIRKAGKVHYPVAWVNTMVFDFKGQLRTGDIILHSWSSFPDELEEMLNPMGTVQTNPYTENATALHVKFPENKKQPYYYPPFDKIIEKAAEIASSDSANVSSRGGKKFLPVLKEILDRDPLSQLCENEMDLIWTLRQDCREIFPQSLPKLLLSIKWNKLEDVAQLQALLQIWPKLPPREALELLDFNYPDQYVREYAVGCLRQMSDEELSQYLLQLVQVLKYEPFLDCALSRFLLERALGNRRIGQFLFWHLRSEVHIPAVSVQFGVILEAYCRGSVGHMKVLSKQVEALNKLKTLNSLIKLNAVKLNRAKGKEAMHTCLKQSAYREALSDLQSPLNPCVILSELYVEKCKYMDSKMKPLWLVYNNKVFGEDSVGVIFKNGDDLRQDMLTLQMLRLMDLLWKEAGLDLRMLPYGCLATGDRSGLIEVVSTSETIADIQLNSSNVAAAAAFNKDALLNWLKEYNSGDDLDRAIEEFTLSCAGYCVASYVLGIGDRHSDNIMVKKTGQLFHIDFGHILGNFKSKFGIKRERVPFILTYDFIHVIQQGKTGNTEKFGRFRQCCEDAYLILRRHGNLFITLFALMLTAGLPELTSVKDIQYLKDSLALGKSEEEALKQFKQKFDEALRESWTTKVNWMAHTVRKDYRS
T2 sequence (P27986 whole entry partner): as the sequence (P27986 whole entry partner) above
T3 sequence (O00329 whole entry): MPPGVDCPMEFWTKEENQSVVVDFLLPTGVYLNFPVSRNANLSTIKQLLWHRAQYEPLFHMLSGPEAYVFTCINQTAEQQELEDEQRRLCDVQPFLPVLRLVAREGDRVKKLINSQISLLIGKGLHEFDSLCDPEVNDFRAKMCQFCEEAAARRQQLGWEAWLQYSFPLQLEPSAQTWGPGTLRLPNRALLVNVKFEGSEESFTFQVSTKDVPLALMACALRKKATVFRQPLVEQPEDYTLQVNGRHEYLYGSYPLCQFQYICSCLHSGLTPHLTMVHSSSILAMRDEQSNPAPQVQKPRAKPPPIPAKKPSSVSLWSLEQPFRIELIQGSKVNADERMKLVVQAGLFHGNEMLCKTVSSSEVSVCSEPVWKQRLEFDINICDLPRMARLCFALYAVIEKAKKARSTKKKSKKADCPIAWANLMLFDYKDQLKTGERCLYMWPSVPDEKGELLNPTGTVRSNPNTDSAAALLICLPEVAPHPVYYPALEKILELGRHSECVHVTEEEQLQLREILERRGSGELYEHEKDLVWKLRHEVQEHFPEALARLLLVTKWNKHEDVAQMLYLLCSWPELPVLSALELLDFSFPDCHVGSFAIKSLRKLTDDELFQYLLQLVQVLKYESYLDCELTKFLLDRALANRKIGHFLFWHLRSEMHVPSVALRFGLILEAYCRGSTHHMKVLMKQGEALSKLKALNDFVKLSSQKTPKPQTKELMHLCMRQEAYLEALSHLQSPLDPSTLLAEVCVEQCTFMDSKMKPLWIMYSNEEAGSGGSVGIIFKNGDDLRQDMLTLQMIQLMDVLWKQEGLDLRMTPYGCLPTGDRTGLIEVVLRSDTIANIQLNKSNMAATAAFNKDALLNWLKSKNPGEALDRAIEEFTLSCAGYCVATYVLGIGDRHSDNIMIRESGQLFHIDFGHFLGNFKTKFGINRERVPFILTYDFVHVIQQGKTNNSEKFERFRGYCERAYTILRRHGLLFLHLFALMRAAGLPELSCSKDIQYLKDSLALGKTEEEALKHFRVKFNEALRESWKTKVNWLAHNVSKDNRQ
T3 sequence (P27986 whole entry partner): as the sequence (P27986 whole entry partner) above

Regarding `COc1ncc(-c2cccc3cc([C@H](C)Nc4nc(N)ncc4C#N)n(-c4ccccc4)c(=O)c23)cn1` [Compound 5, (S)-2-amino-4-((1-(8-(2-methoxypyrimidin-5-yl)-1-oxo-2-phenyl-1,2-dihydroisoquinolin-3-yl)ethyl)amino)pyrimidine-5-carbonitrile], the 50% inhibitory concentration (IC50) in [1] (setting [10]) is 1 to 10 µM; in assay [2] (setting [11]), 1 to 10 µM; in assay [4], less than 0.1 µM; in assay [5] it was less than 0.1 µM; in assay [6] (setting [11]), greater than 10 µM. Further, the EC50 in assay [3] (setting [12]) was less than 0.1 µM.

On to `COc1cc(-c2cccc3cc([C@H](C)Nc4nc(N)ncc4C#N)n(-c4ccccc4)c(=O)c23)ccn1` [Compound 49], for which the IC50 in assay [2] (setting [11]) is 1 to 10 µM; in assay [7], 1 to 10 µM; in assay [4], less than 0.1 µM; in [5], less than 0.1 µM; in assay [6] (setting [11]), 1 to 10 µM. In addition, the EC50 in assay [3] (setting [12]) was less than 0.1 µM.

On to `CCc1ncc(-c2cccc3nc([C@H](C)Nc4nc(N)ncc4C#N)n(-c4ccccc4)c(=O)c23)cn1` [Compound 60], for which the half-maximal inhibitory concentration (IC50) was greater than 10 µM in [1] (setting [10]), greater than 10 µM in assay [7], less than 0.1 µM in assay [8] (setting [12]) and less than 0.1 µM in assay [9] (setting [12]). The EC50 in assay [3] (setting [12]) is less than 0.1 µM.

As to `C[C@H](Nc1cc(Cl)ncn1)c1cc2cccc(Cl)c2c(=O)n1-c1ccccc1` [Compound 77, (S)-8-chloro-3-(1-(6-chloropyrimidin-4-ylamino)ethyl)-2-phenylisoquinolin-1(2H)-one], the IC50 in assay [8] (setting [10]) and in assay [9] (setting [10]) was 1 to 10 µM each time.

Take `COc1cc(-c2cccc3cc([C@H](C)Nc4nc(N)ncc4C(=O)N(C)CCO)n(-c4ccccc4)c(=O)c23)ccn1` [Compound 114]: the IC50 in assay [8] (setting [10]) and in assay [9] (setting [10]) was 1 to 10 µM in each case.

Take `CCOc1cncc(-c2cccc3cc([C@H](C)Nc4nc(N)ncc4C#N)n(-c4ccccc4)c(=O)c23)c1` [Compound 115]: the half-maximal inhibitory concentration (IC50) in assay [1] (setting [12]) is 0.1 to 1 µM; in [7] it was 1 to 10 µM; in assay [8] (setting [12]), less than 0.1 µM; in assay [9] (setting [12]), less than 0.1 µM. Besides, in assay [3] (setting [12]), the EC50 was less than 0.1 µM.

`COc1cc(-c2cccc3cc([C@H](C)Nc4nc(N)ncc4C(=O)N4CCOCC4)n(-c4ccccc4)c(=O)c23)ccn1` [Compound 119]: the concentration for half-maximal inhibition (IC50) in assay [8] (setting [10]) and in assay [9] (setting [10]) was 1 to 10 µM throughout.

On to `CCOc1nc(-c2cnc(N)nc2N[C@@H](C)c2cc3cccc(-c4ccc(=O)n(C)c4)c3c(=O)n2-c2ccccc2)cs1` [Compound 138], for which the IC50 in assay [1] (setting [10]) is 1 to 10 µM; in assay [2] (setting [13]), 0.1 to 1 µM; in assay [7] it was 1 to 10 µM; in assay [4], less than 0.1 µM; in assay [5], less than 0.1 µM; in [6] (setting [11]) it was 1 to 10 µM.

For the compound `C[C@H](Nc1nc(N)ncc1C#N)c1cc2cccc(-c3cccc(N(C)S(C)(=O)=O)c3)c2c(=O)n1-c1ccccc1` [Compound 153], the 50% inhibitory concentration (IC50) is 0.1 to 1 µM in [1] (setting [12]), 1 to 10 µM in [7], less than 0.1 µM in assay [8] (setting [12]) and less than 0.1 µM in assay [9] (setting [12]). For the same compound, in assay [3] (setting [12]), the EC50 is less than 0.1 µM.

As to `C[C@H](Nc1nc(N)ncc1NC(=O)c1ccccc1)c1cc2cccc(Cl)c2c(=O)n1-c1ccccc1` [Compound 175], the concentration for half-maximal inhibition (IC50) in assay [8] (setting [10]) and in [9] (setting [10]) was 1 to 10 µM in each case.

Regarding `C[C@H](Nc1nc(N)ncc1C#N)c1cc2cccc(-c3ccn(C)c(=O)c3)c2c(=O)n1-c1ccccc1` [Compound 182], the IC50 in [8] (setting [10]) and in [9] (setting [10]) was 1 to 10 µM in each case.

With `COc1cc(N[C@@H](C)c2cc3cccc(Cl)c3c(=O)n2-c2ccccc2)nc(N)n1` [Compound 211], the EC50 in [3] (Greater than 1 μM to 10 μM) is 1 to 10 µM. The IC50 in [8] (setting [10]) and in assay [9] (setting [10]) was 1 to 10 µM throughout.

On to `CC(C)n1c([C@H](C)Nc2nc(N)ncc2C#N)cc2cccc(-c3ccc(=O)n(C)c3)c2c1=O` [Compound 326], for which the IC50 was 1 to 10 µM in [1] (setting [10]); 1 to 10 µM in assay [2] (setting [11]); 1 to 10 µM in [7]; 0.1 to 1 µM in assay [4]; less than 0.1 µM in assay [5]; 0.1 to 1 µM in assay [6] (setting [13]).

In the case of `COc1nc(-c2cnc(N)nc2N[C@@H](C)c2cc3cccc(-c4ccc(=O)n(C)c4)c3c(=O)n2-c2ccccc2)cs1` [Compound 391], the IC50 in assay [2] (setting [11]) is greater than 10 µM; in assay [4], 0.1 to 1 µM; in assay [5], less than 0.1 µM; in [6] (setting [11]) it was greater than 10 µM.

As to `C[C@H](Nc1nc(N)ncc1C(=O)C1CC1)c1cc2cccc(Cl)c2c(=O)n1-c1ccccc1` [Compound 425], the IC50 is 1 to 10 µM in assay [1] (setting [10]); 0.1 to 1 µM in assay [4]; 1 to 10 µM in assay [8] (setting [10]); less than 0.1 µM in assay [5]; 1 to 10 µM in assay [9] (setting [10]).

Take `C[C@H](Nc1nc(N)ncc1C(=O)N1CC(F)(F)C1)c1cc2cccc(Cl)c2c(=O)n1-c1ccccc1` [Compound 434]: the IC50 in [8] (setting [10]) and in assay [9] (setting [10]) was 1 to 10 µM throughout.

For the compound `COc1cc(-c2cccc3cc([C@H](C)Nc4nc(N)ncc4C(=O)NC4CC4)n(-c4ccccc4)c(=O)c23)ccn1` [Compound 441], the EC50 in [3] (Greater than 1 μM to 10 μM) was in the range of 1 to 10 µM. The 50% inhibitory concentration (IC50) in [8] (setting [10]) and in assay [9] (setting [10]) was 1 to 10 µM each time.
